In PMC9818267, “Brain Natriuretic Peptide Protects Cardiomyocytes from Apoptosis and Stimulates Their Cell Cycle Re-Entry in Mouse Infarcted Hearts” (Cells, 2022):
Read-outs that look alike come from different tables or passages of the source. No end group written: not given here.

Tests used:
[1] = cited from earlier work
From the text: In previous work, we highlighted the cardioprotective effect of BNP intraperitoneal (ip) injections in infarcted mice. Contractility increased twofold and heart remodeling (the percentage of changes of the left ventricle volume) decreased (−79%, p = 0.04) 4 weeks after MI in BNP-treated mice when compared to saline-injected mice. At the cellular level, BNP injections decreased the infarct size by 20% and reduced fibrosis. At least a part of the BNP positive effect in infarcted mice is due to increased cardiac angiogenesis and vasculogenesis. Indeed, BNP stimula ... || The concentrations of BNP used in this study were already shown to stimulate the mobilization, proliferation and differentiation of the endothelial precursor cells. In our first work, we verified that these concentrations have no impact on blood pressure, heart rate and cardiac output. In contrast, these BNP concentrations decrease the heart remodeling, the left ventricular volume and left ventricular end diastolic diameter and increase by 2-fold the contractility, 4 weeks after MI [11]. Furthermore, at the cellular level, these BNP concentrations increase the number of ca ...

[2] = Survival of infarcted mice at 14 days; type: in vivo, mouse; conditions: 14 days after MI; BNP ip every 2 days; saline group 83.9%
Description: To generate a permanent infarction, a ligation of the left anterior descending coronary artery (LAD) was performed in 6–8-week-old C57BL/6- or 8-week-old Myh6 MerCreMer mice, already injected with Tamoxifen 2 weeks before. Mice were anesthetized with ketamine/xylazine and acepromazine (65 mg/kg, 15 mg/kg, 2 mg/kg, respectively). Mice were intubated and ventilated during all the entire period of surgery. At the third intercostal space, the chest cavity was opened and at the left upper sterna border, the LAD coronary artery was ligated with a 7–0 nylon suture at about 1–2 mm from the atria. After surgery, Temgesic (Buprenorphine, 0.1 mg/kg) was injected subcutaneously as soon as the mice woken up and every 8–12 h for 2 days. Adult mice were sacrificed by lethal injection of pentobarbital (150 mg/kg intraperitoneally) 2 weeks after the surgery. The breathing arrest was controlled and cervical dislocation was performed.
BNP was injected into infarcted adults, and unmanipulated neonatal and adult mice. Directly after surgery, NaCl (saline) or BNP (1.3 µg/20 g in 20 µL) was injected into the left ventricle cavity. At 24 h after MI, mice were intraperitoneal (ip) injected with BNP (2 µg/20 g mice) or saline every 2 days. C57BL/6 mice were sacrificed 1- and 14 days post-MI and Myh6 MerCreMer mice were sacrificed 14 days post-MI (Figure 1A). […]

ERK = test: Western blot pERK/ERK in CMs isolated from BNP-treated hearts; type: in vivo, mouse; conditions: CMs isolated from BNP-treated adult unmanipulated hearts (injection 2–3 h before isolation), vs saline
Description: BNP was injected into infarcted adults, and unmanipulated neonatal and adult mice. Directly after surgery, NaCl (saline) or BNP (1.3 µg/20 g in 20 µL) was injected into the left ventricle cavity. At 24 h after MI, mice were intraperitoneal (ip) injected with BNP (2 µg/20 g mice) or saline every 2 days. C57BL/6 mice were sacrificed 1- and 14 days post-MI and Myh6 MerCreMer mice were sacrificed 14 days post-MI (Figure 1A). Neonatal C57BL/6 mice (3 days after birth) were injected ip with NaCl or BNP every two days (1 µg/2 g; Bachem; synthetic mouse BNP (1–45) peptide (catalog number H-7558)). Mice were sacrificed 11 days after birth (Figure 1B). Eight week old C57 BL/6 mice or Myh6 MerCreMer unmanipulated mice were injected ip with BNP (2 µg/20 g mice) or NaCl every two days (Figure 1C). Two weeks after the first injection, mice were sacrificed. To assess for the implication of the ERK signaling pathway in the BNP effect on CMs, PD0325901 (60 µg/20 g mice in 80 µL) was administered by gavage in adult unmanipulated mice 1 h before BNP injection (2 µg/20 g mice).
CM isolations were performed thanks to the Langendorff-Free method. […]
Total proteins were extracted from CMs isolated from adult infarcted and unmanipulated neonatal and adult hearts. […] The signal was detected and quantified with the Odyssey infrared imaging system (LI-COR. Biosciences, Bad Homburg, Germany). […]

phospholamban (PLB) = test: Western blot pPLB/PLB in adult CMs stimulated in vitro; type: cell-based, mouse; conditions: adult CMs stimulated with BNP for 2–3 h in vitro, vs untreated
Description: CM isolations were performed thanks to the Langendorff-Free method. […] Thereafter, the heart was removed from the chest and the left ventricle was perfused with enzymatic solution containing collagenase II (120 U/mL), collagenase IV (120 U/mL) (Worthington, Biochemical Corporation, USA) and protease XIV (0.05 mg/mL or 0.175 U/mL) (Sigma-Aldrich, Merck, Darmstadt, Germany). In each experiment, a full digestion of the heart was obtained. After digestion, cardiac cells were dissociated by gentle pipetting, filtered and collected after 25 min sedimentation. For infarcted hearts, the tissue was separated into the three zones (ZI, BZ and RZ). The three different areas were weighted before gentle pipetting.
Total proteins were extracted from CMs isolated from adult infarcted and unmanipulated neonatal and adult hearts. Proteins were transferred to nitrocellulose membranes (Biorad) before incubation with primary antibodies overnight at 4 °C. Secondary antibodies were added 1 h at RT in the dark (Supplementary File S1). The signal was detected and quantified with the Odyssey infrared imaging system (LI-COR. Biosciences, Bad Homburg, Germany). All results were normalized to the tubulin protein level or to the total protein level thanks to stainings with the Revert 700 Total protein Stain (LI-COR).

Nkx2.5+ myocytes = conditions: cited from earlier work
neonatal CMs = test: Neonatal cardiomyocyte culture treated with BNP; type: cell-based, mouse
Description: Neonatal (1–2 days) C57BL/6 pups were sacrificed and CMs were isolated by enzymatic digestion according to the method previously described. Briefly, the chest was opened and the heart removed. After separation of the atria from the rest of the heart, the ventricles were minced and digested with 0.45 mg/mL collagenase (Worthington, Biochemical Corporation, Lakewood, NJ, USA) and 1 mg/mL pancreatin (Sigma). After 3 rounds of digestion, cells were plated 2 times for 45 min in order to separate CMs (non-adherent cells) from the non-myocyte cells (NMCs). Thereafter, CMs were plated on gelatine (0.1%) coated plates and cultured in 3:1 mixture of DMEM and Medium 199 (Invitrogen Corp, San Diego, CA, USA) supplemented with 10% horse serum (Oxoid), 5% fetal bovine serum (Invitrogen), 10 mM Hepes, 100 U/mL penicillin G. To homogenize the experiment, 70,000 CMs were plated per well.
Immediately after plating, neonatal CMs were treated or not with BNP for 14 days. To inhibit NMC proliferation and to work on 95% pure CMs, cells were exposed the first 7 days of culture to cytosine-β-D-arabinofuranoside (AraC, 1 mg/mL). After 7 days of culture, AraC was removed until 14 days of culture. CMs were cultured in a hypoxia chamber (Stem Cell Technologies) flushed with 3% O2/5% CO2/92% N2 (Carbagas). Indeed, we previously observed that low oxygen concentration stimulates CM dedifferentiation and proliferation. Medium was replaced 1–2 times/week.
CMs were treated with 3 different concentrations of BNP: 10 nM, 100 nM and 1000 nM and compared to untreated cells. Quantitative RT-qPCR, Western blot analysis as well as immunohistochemistry studies were performed after 14 days of culture.

[3] = neonatal CMs in vitro, BNP vs untreated
[4] = neonatal CMs in vitro, BNP vs untreated, 14 days

Brain Natriuretic Peptide (SQGSTLRVQQRPQNSKVTHISSCFGHKIDRIGSVSRLGCNALKLL; not fully specified; ends and bridges not checked; UniProt P40753 77-121, looked up) [BNP, synthetic mouse BNP (1–45) peptide (Bachem, catalog number H-7558)]
heart remodeling (percentage of changes of the left ventricle volume) change ([1]; 4 weeks after MI, BNP vs saline, p = 0.04): −79%
contractility increase ([1]; 4 weeks after MI, BNP vs saline): twofold
impact on blood pressure, heart rate and cardiac output ([1]; BNP concentrations used in this study): no impact
decrease of infarct size ([1]; BNP injections in infarcted mice): 20%
survival of infarcted mice [2]: 84.2%
pERK/ERK ratio increase (ERK): 1.6 ×
pPLB/PLB ratio increase (phospholamban (PLB)): 2.1 ×
increase in Nkx2.5+ myocytes (Nkx2.5+ myocytes; adult BNP-treated hearts): 68%
increase in Nkx2.5+ myocytes (Nkx2.5+ myocytes; neonatal BNP-treated hearts): 22.5%
increase of number of CMs in culture (neonatal CMs; 10 nM BNP, 14 days, 3% O2, vs untreated): 18%
number of small and mononucleated CMs (neonatal CMs; BNP-treated neonatal CM cultures vs untreated): higher number
cyclin A2 mRNA increase (neonatal CMs; [3]): 40%
cyclin B2 mRNA increase (neonatal CMs; [3]): 30%
cyclin D1 mRNA increase (neonatal CMs; [3]): 50%
increase of percentage of CMs expressing Aurkb (neonatal CMs; [4]): 50%
increase of percentage of CMs expressing Ki67 (neonatal CMs; [4]): 23%
